These results are taken from US20190270778A1, “Cyclic Peptides As C5a Receptor Antagonists” (priority 2016, published 2019).

Read-outs that look alike come from different tables or passages of the source.

The conditions of data set [1]: amide bond, 18-membered ring.
For data set [2] the following is noted: amide bond.
For data set [3] the following is noted: the molecule shown is the open-chain precursor; amide bond; 18-membered ring.
The conditions of data set [4]: amide bond, 18-membered ring. This is another data set of the same source.
Setting [5] is: the molecule shown is the open-chain precursor.

As for “((31R,6S,9S,15S,19R,20aS)-6-((1H-indol-3-yl)methyl)-15-((S)-2-((carboxymethyl)amino)-3-phenylpropanamido)-9-(3-guanidinopropyl)-3-(((1s,4S)-4-hydroxycyclohexyl)methyl)-1,4,7,10,16-pentaoxoicosahydropyrrolo[1,2-a][1,4,7,10,13]pentaazacyclooctadecin-19-yl)glycine”, the ring closure, yield after HPLC in data set [1] (with chain assembly) is 19.4%.
In data set [1] (2 steps), “((S)-1-(((3R,6S,9S,15S,19S,20aS)-6-((1H-indol-3-yl)methyl)-19-acetamido-9-(3-guanidinopropyl)-3-(((1s,4S)-4-hydroxycyclohexyl)methyl)-1,4,7,10,16-pentaoxoicosahydropyrrolo[1,2-a][1,4,7,10,13]pentaazacyclooctadecin-15-yl)amino)-1-oxo-3-phenylpropan-2-yl)glycine” gave a ring closure, yield after HPLC of 30%.
With `Cc1c(C)c(S(=O)(=O)NC(=N)NCCC[C@@H]2NC(=O)[C@H](Cc3cn(C(=O)OC(C)(C)C)c4ccccc34)NC(=O)[C@@H](C[C@H]3CC[C@@H](O)CC3)NC(=O)[C@@H]3C[C@@H](OC(C)(C)C)CN3C(=O)[C@@H](NC(=O)[C@H](Cc3ccccc3)N(CC(=O)OC(C)(C)C)C(=O)OC(C)(C)C)CCCNC2=O)c(C)c2c1OC(C)(C)C2`, the ring closure, yield of all isomers in data set [2] (from Cc1c(C)c(S(=O)(=O)NC(=N)NCCC[C@H](NC(=O)[C@H](Cc2cn(C(=O)OC(C)(C)C)c3ccccc23)NC(=O)[C@@H](C[C@H]2CC[C@@H](O)CC2)NC(=O)[C@@H]2C[C@@H](OC(C)(C)C)CN2)C(=O)NCCC[C@H](NC(=O)[C@H](Cc2ccccc2)N(CC(=O)OC(C)(C)C)C(=O)OC(C)(C)C)C(=O)O)c(C)c2c1OC(C)(C)C2, HATU, THF, 14.1 mM, 25.0 °C, 0.5 h) turned out to be 87%.
In data set [3], “H-Hyp(tBu)-dAla(cis-4-hydroxycyclohexyl)-Trp(Boc,6-Et)-Arg(Pbf)-(Nδ)Orn(Nα-[Boc-N(CH2CO2tBu)-Phe])-OH” came in with a ring closure, isolated yield of 42%.
Consider “((S)-1-(((31R,6S,9S,15S,19R,20aS)-6-((1H-indazol-3-yl)methyl)-9-(3-guanidinopropyl)-19-hydroxy-3-(((1s,4S)-4-hydroxycyclohexyl)methyl)-1,4,7,10,16-pentaoxoicosahydropyrrolo[1,2-a][1,4,7,10,13]pentaazacyclooctadecin-15-yl)amino)-1-oxo-3-phenylpropan-2-yl)glycine”, for which, in data set [1] (2 steps), the ring closure, yield after HPLC was determined as 35%.
Compound `CCc1ccc2c(C[C@@H]3NC(=O)[C@@H](C[C@H]4CC[C@@H](O)CC4)NC(=O)[C@@H]4C[C@@H](OC(C)(C)C)CN4C(=O)[C@@H](NC(=O)[C@H](Cc4ccccc4)N(CC(=O)OC(C)(C)C)C(=O)OC(C)(C)C)CCCNC(=O)[C@H](CCCNC(=N)NS(=O)(=O)c4c(C)c(C)c5c(c4C)CC(C)(C)O5)NC3=O)cn(C(=O)OC(C)(C)C)c2c1` showed a ring closure, yield of all isomers in data set [2] (from CCc1ccc2c(C[C@H](NC(=O)[C@@H](C[C@H]3CC[C@@H](O)CC3)NC(=O)[C@@H]3C[C@@H](OC(C)(C)C)CN3)C(=O)N[C@@H](CCCNC(=N)NS(=O)(=O)c3c(C)c(C)c4c(c3C)CC(C)(C)O4)C(=O)NCCC[C@H](NC(=O)[C@H](Cc3ccccc3)N(CC(=O)OC(C)(C)C)C(=O)OC(C)(C)C)C(=O)O)cn(C(=O)OC(C)(C)C)c2c1) of 42%.
Compound “((S)-1-(((3R,6S,9S,15S,19R,20aS)-9-(3-guanidinopropyl)-19-hydroxy-3-(((1s,4S)-4-hydroxycyclohexyl)methyl)-6-((5-methoxy-1H-indol-3-yl)methyl)-1,4,7,10,16-pentaoxoicosahydropyrrolo[1,2-a][1,4,7,10,13]pentaazacyclooctadecin-15-yl)amino)-1-oxo-3-phenylpropan-2-yl)glycine” registered a ring closure, yield after HPLC in data set [1] (2 steps) of 6%.
Consider “((S)-1-(((3R,6S,9S,15S,19R,20aS)-6-((1H-indol-3-yl)methyl)-19-acetamido-9-(3-guanidinopropyl)-3-(((1s,4S)-4-hydroxycyclohexyl)methyl)-1,4,7,10,16-pentaoxoicosahydropyrrolo[1,2-a][1,4,7,10,13]pentaazacyclooctadecin-15-yl)amino)-1-oxo-3-phenylpropan-2-yl)glycine”, for which, in data set [1] (2 steps), the ring closure, yield after HPLC is 20%.
Take `Cc1c(C)c(S(=O)(=O)NC(=N)NCCC[C@@H]2NC(=O)[C@H](Cc3cn(C(=O)OC(C)(C)C)c4ccccc34)NC(=O)[C@@H](C[C@H]3CC[C@@H](O)CC3)NC(=O)[C@@H]3C[C@@H](OCC(=O)OC(C)(C)C)CN3C(=O)[C@@H](NC(=O)[C@H](Cc3ccccc3)N(CC(=O)OC(C)(C)C)C(=O)OC(C)(C)C)CCCNC2=O)c(C)c2c1OC(C)(C)C2`: the ring closure, yield of all isomers in data set [2] (from Cc1c(C)c(S(=O)(=O)NC(=N)NCCC[C@H](NC(=O)[C@H](Cc2cn(C(=O)OC(C)(C)C)c3ccccc23)NC(=O)[C@@H](C[C@H]2CC[C@@H](O)CC2)NC(=O)[C@@H]2C[C@@H](OCC(=O)OC(C)(C)C)CN2)C(=O)NCCC[C@H](NC(=O)[C@H](Cc2ccccc2)N(CC(=O)OC(C)(C)C)C(=O)OC(C)(C)C)C(=O)O)c(C)c2c1OC(C)(C)C2) was 83%.
Consider `Cc1c(C)c(S(=O)(=O)NC(=N)NCCC[C@@H]2NC(=O)[C@H](Cc3cn(C(=O)OC(C)(C)C)c4ncccc34)NC(=O)[C@@H](C[C@H]3CC[C@@H](O)CC3)NC(=O)[C@@H]3C[C@@H](OC(C)(C)C)CN3C(=O)[C@@H](NC(=O)[C@H](Cc3ccccc3)N(CC(=O)OC(C)(C)C)C(=O)OC(C)(C)C)CCCNC2=O)c(C)c2c1OC(C)(C)C2`, for which, in data set [2] (from Cc1c(C)c(S(=O)(=O)NC(=N)NCCC[C@H](NC(=O)[C@H](Cc2cn(C(=O)OC(C)(C)C)c3ncccc23)NC(=O)[C@@H](C[C@H]2CC[C@@H](O)CC2)NC(=O)[C@@H]2C[C@@H](OC(C)(C)C)CN2)C(=O)NCCC[C@H](NC(=O)[C@H](Cc2ccccc2)N(CC(=O)OC(C)(C)C)C(=O)OC(C)(C)C)C(=O)O)c(C)c2c1OC(C)(C)C2), the ring closure, yield of all isomers amounted to 93.4%.
Compound `Cc1c(C)c(S(=O)(=O)NC(=N)NCCC[C@@H]2NC(=O)[C@H](Cc3c[nH]c4ccccc34)NC(=O)[C@@H](C[C@H]3CC[C@@H](O)CC3)NC(=O)[C@@H]3C[C@H](NC(=O)OC(C)(C)C)CN3C(=O)[C@@H](NC(=O)[C@H](Cc3ccccc3)N(CC(=O)OC(C)(C)C)C(=O)OC(C)(C)C)CCCNC2=O)c(C)c2c1OC(C)(C)C2` gave a ring closure, yield of all isomers in data set [2] (from Cc1c(C)c(S(=O)(=O)NC(=N)NCCC[C@H](NC(=O)[C@H](Cc2c[nH]c3ccccc23)NC(=O)[C@@H](C[C@H]2CC[C@@H](O)CC2)NC(=O)[C@@H]2C[C@H](NC(=O)OC(C)(C)C)CN2)C(=O)NCCC[C@H](NC(=O)[C@H](Cc2ccccc2)N(CC(=O)OC(C)(C)C)C(=O)OC(C)(C)C)C(=O)O)c(C)c2c1OC(C)(C)C2) of 100%.
On to “tert-butyl-3-(((3R,6S,9S,15S,19R,20aS)-19-(tert-butoxy)-15-((tert-butoxycarbonyl)amino)-3-(((1s,4S)-4-hydroxycyclohexyl)methyl)-1,4,7,10,16-pentaoxo-9-(3-(3-((2,2,4,6,7-pentamethyl-2,3-dihydrobenzofuran-5-yl)sulfonyl)guanidino)propyl)icosahydropyrrolo[1,2-a][1,4,7,10,13]pentaazacyclooctadecin-6-yl)methyl)-1H-indole-1-carboxylate”, for which the ring closure, crude yield in data set [4] (HATU/NMM, THF/DMF 10:1, 13.1 mM) came out at 95.3%.
The compound “((S)-1-(((3R,6S,9S,15S,19R,20aS)-9-(3-guanidinopropyl)-19-hydroxy-3-(((1s,4S)-4-hydroxycyclohexyl)methyl)-6-((6-methoxy-1H-indol-3-yl)methyl)-1,4,7,10,16-pentaoxoicosahydropyrrolo[1,2-a][1,4,7,10,13]pentaazacyclooctadecin-15-yl)amino)-1-oxo-3-phenylpropan-2-yl)glycine” had a ring closure, yield after HPLC in data set [1] (with chain assembly) of 2.3%.
With “H-Hyp(CH2CO2tBu)-dAla(3-(cis-4-hydroxycyclohexyl))-Trp(Boc)-Arg(Pbf)-Orn(Nα-[Boc-N(CH2CO2tBu)-Phe]; chain through Nδ)-OH?”, in data set [4] (setting [5]), the ring closure, crude yield was 83%.
On to `Cc1c(C)c(S(=O)(=O)NC(=N)NCCC[C@@H]2NC(=O)[C@H](Cc3cn(C(=O)OC(C)(C)C)c4ccccc34)NC(=O)[C@@H](C[C@H]3CC[C@@H](O)CC3)NC(=O)[C@@H]3C[C@@H](OC(C)(C)C)CN3C(=O)[C@@H](NC(=O)OC(C)(C)C)CCCNC2=O)c(C)c2c1OC(C)(C)C2`, for which the ring closure, yield of all isomers in data set [2] (from Cc1c(C)c(S(=O)(=O)NC(=N)NCCC[C@H](NC(=O)[C@H](Cc2cn(C(=O)OC(C)(C)C)c3ccccc23)NC(=O)[C@@H](C[C@H]2CC[C@@H](O)CC2)NC(=O)[C@@H]2C[C@@H](OC(C)(C)C)CN2)C(=O)NCCC[C@H](NC(=O)OC(C)(C)C)C(=O)O)c(C)c2c1OC(C)(C)C2, HATU, THF, 13.1 mM, 25.0 °C, 0.25 h) was 95.3%.
In turn, “((S)-1-(((3R,6S,9S,15S,19R,20aS)-6-((1H-indol-3-yl)methyl)-19-amino-9-(3-guanidinopropyl)-3-(((1s,4S)-4-hydroxycyclohexyl)methyl)-1,4,7,10,16-pentaoxoicosahydropyrrolo[1,2-a][1,4,7,10,13]pentaazacyclooctadecin-15-yl)amino)-1-oxo-3-phenylpropan-2-yl)glycine” registered a ring closure, yield after HPLC in data set [1] (2 steps) of 6.6%.
In data set [4] (setting [5]), “H-Hyp(tBu)-dAla(3-(cis-4-hydroxycyclohexyl))-Trp(Boc)-Arg(Pbf)-Orn(Nα-[N-(CH2CO2tBu)-MePhe]; chain through Nδ)-OH” registered a ring closure, crude yield of 100%.
“H-Hyp(tBu)-dAla(3-(cis-4-hydroxycyclohexyl))-Ala(3-(1-Boc-1H-pyrrolo[2,3-b]pyridin-3-yl))-Arg(Pbf)-Orn(Nα-[Boc-N(CH2CO2tBu)-Phe]; chain through Nδ)-OH” yielded a ring closure, crude yield in data set [4] (setting [5]) of 100%.
In data set [4] (setting [5]), “H-Pro-dAla(3-(cis-4-hydroxycyclohexyl))-Ala(3-(1-Boc-1H-pyrrolo[2,3-b]pyridin-3-yl))-Arg(Pbf)-Orn(Nα-[Boc-N(CH2CO2tBu)-Phe]; chain through Nδ)-OH” displayed a ring closure, crude yield of 100%.
